Experimental data published in patent publication US20250195457A1, “PHARMACEUTICAL COMPOSITION FOR TREATMENT OF PARKINSON'S DISEASE” (Eisai R&D Management Co., Ltd., priority 2022, published 2025).

How the values were obtained:
[1] = test system: levodopa-induced dyskinesia model cynomolgus monkeys; assay: Test Example 3: dyskinesia score in levodopa-induced dyskinesia model monkeys; type: in vivo; parameters: key to Dyskinesia score: dyskinesia score 0 = normal home cage activity to 4 = severe stereotypy
Procedure: A levodopa/carbidopa mixture containing 80 mg/kg of levodopa and 20 mg/kg of carbidopa and having a solution volume of 5 mL/kg was orally administered to Parkinson's disease model cynomolgus monkeys at the age of 6 to 7 prepared in the same way as in Test Example 1 for 8 consecutive days to provide levodopa-induced dyskinesia model cynomolgus monkeys. The induction of dyskinesia was determined based on the “dyskinesia score” in accordance with the following behavior evaluation items in the following test on activity in home cages, and animals having dyskinesia scores of 1 or more on day 7 of the repeated administration of the levodopa/carbidopa mixture were used.
Home cage activities corresponding to dyskinesia scores • 0: Normal home cage activity (exploring or inactivity, able to drink water, plays with mirror or caging, climbing of the walls). • 1: Some interference with normal activity, however able to climb walls. • 2: Occasional exploration of cage, some stereotypy • 3: Little normal movement, lack of climbing of walls, clear stereotypy • 4: Lack of normal home cage activity, lack of normal exploratory behavior and movement, severe stereotypy
Seven levodopa-induced dyskinesia model cynomolgus monkeys were randomized into 4 groups of approximately equal mean and variance in terms of body weight. On subsequent cycles 2, 3, and 4, the animals were crossed over to receive the other treatment. A wash out period of one week or more was set between cycles.
One of the seven animals was excluded from the evaluation of cycles 3 and 4 because it was unable to get up due to dyskinesia on day 8 in cycle 3 of the repeated administration of the levodopa/carbidopa mixture.
By the end of the study, each animal had received all the four treatments. Each substance was administered 1 hr. after the administration on day 8 of the repeated administration of the levodopa/carbidopa mixture. As a vehicle, an aqueous solution containing 0.43% (w/v) methyl cellulose 400, 10% (v/v) dimethyl sulfoxide (DMSO), and 4.5% (w/v) Cremophor (R) were used.
Before the administration, and 1 hr., 4 hrs., and 24 hrs. after the administration of the test substances, the dyskinesia scores of the animals were evaluated. The behavior evaluation was performed in a blinded manner. The dyskinesia scores of the groups were compared using Steel's test. The p-values of less than 0.05 were considered to be statistically significant.

[2] = test system: various animal models; settings: cited from earlier work

In the case of `NS(=O)(=O)N[C@H]1c2c(F)cc(F)cc2CC1(F)F` [Compound (I), N-[(1S)-2,2,5,7-tetrafluoro-2,3-dihydro-1H-inden-1-yl]sulfamide], the Dyskinesia score ([1]; Compound (I) 25 mg/kg (G2), 1 hr. after administration) is reported as 2.0 ± 0.0, the Dyskinesia score ([1]; Compound (I) 25 mg/kg (G2), 4 hrs. after administration) is reported as 1.6 ± 0.2 and the Dyskinesia score ([1]; Compound (I) 25 mg/kg (G2), 24 hrs. after administration) is reported as 2.0 ± 0.0. It also gave a Dyskinesia score ([1]; Compound (I) 25 mg/kg (G2), Pre (before administration)) of 1.7 ± 0.2, a Dyskinesia score ([1]; Compound (I) 50 mg/kg (G3), 1 hr. after administration) of 1.8 ± 0.2 and a Dyskinesia score ([1]; Compound (I) 50 mg/kg (G3), 4 hrs. after administration) of 1.3 ± 0.2. The “Mean value of the dyskinesia scores compared with other groups” value ([1]; Compound (I) 50 mg/kg (G3), 4 hrs. after the administration, versus vehicle (G1) and istradefylline (G4)) was “lower as compared with the vehicle-treated group (G1) and the istradefylline-treated group (G4)”, the Dyskinesia score ([1]; Compound (I) 50 mg/kg (G3), 24 hrs. after administration) was 1.8 ± 0.2 and the Dyskinesia score ([1]; Compound (I) 50 mg/kg (G3), Pre (before administration)) was 1.7 ± 0.2. For the same molecule, the analgesic effect [2] was “exhibit an analgesic effect”.
